Laboratory results published in US20240327364A1, “THERAPEUTIC TARGETING OF GPR68 TO INDUCE FERROPTOSIS” (University Of Maryland, Baltimore, priority 2023, published 2024).

What was measured:
Lpa1 = Lpa1 (Homo sapiens, UniProt Q92633); assay: Lpa1 activity of OGM analogs (Table 5); format: cell-based
Experimental: GPCR profiling assays were performed by Millipore (St. Louis, MO) using in cells expressing Gα15, a promiscuous G protein that enhances GPCR coupling to downstream Ca2+ signaling pathways. KinomeScan was conducted by DiscoveRx (Fremont, CA). Since GPCRs represent >30% of targets for FDA-approved small molecules and are known to modulate cell migration, activity against 158 GPCRs was assessed based on their chemical structures. GPCRs (158) were tested for agonist and antagonist activity at 10 μM. […] Chemical segregation analysis of zebrafish phenotype was conducted to further identify the inhibitory activity responsible for the zebrafish phenotype. […] The identities of the R groups in Formula A are shown below in Table 5.

ABL2 = target: T1, ABL2 (Homo sapiens, UniProt P42684); assay: KinomeScan; format: binding; conditions: read-out: % Control
T1 construct: purchased DiscoveRx

ACVR1 = target: T2, ACVR1 (Homo sapiens, UniProt Q04771); assay: KinomeScan; format: binding; conditions: read-out: % Control
T2 construct: purchased DiscoveRx

CDKL2 = CDKL2 (Homo sapiens, UniProt Q92772); assay: KinomeScan; format: binding; conditions: read-out: % Control
CDKL3 = CDKL3 (Homo sapiens, UniProt Q8IVW4); assay: KinomeScan; format: binding; conditions: read-out: % Control
CSNK1A1L = CSNK1A1L (Homo sapiens, UniProt Q8N752); assay: KinomeScan; format: binding; conditions: read-out: % Control
CTK = CTK (Homo sapiens, UniProt P42679); assay: KinomeScan; format: binding; conditions: read-out: % Control
EPHB3 = target: T3, EPHB3 (Homo sapiens, UniProt P54753); assay: KinomeScan; format: binding; conditions: read-out: % Control
T3 construct: purchased DiscoveRx (Fremont, CA)

FGR = target: T4, FGR (Homo sapiens, UniProt P09769); assay: KinomeScan; format: binding; conditions: read-out: % Control
T4 construct: purchased DiscoveRx (Fremont, CA)

HCK = target: T5, HCK (Homo sapiens, UniProt P08631); assay: KinomeScan; format: binding; conditions: read-out: % Control
T5 construct: purchased DiscoveRx (Fremont, CA)

IGF1R = target: T6, IGF1R (Homo sapiens, UniProt P08069); assay: KinomeScan; format: binding; conditions: read-out: % Control
T6 construct: purchased DiscoveRx (Fremont, CA)

[1] = target: T7, JAK1(JH1domain-catalytic) (Homo sapiens, UniProt P23458); assay: KinomeScan; format: binding; conditions: read-out: % Control
T7 construct: JAK1(JH1domain-catalytic); purchased DiscoveRx (Fremont, CA)

LIMK1 = target: T8, LIMK1 (Homo sapiens, UniProt P53667); assay: KinomeScan; format: binding; conditions: read-out: % Control
T8 construct: purchased DiscoveRx

MKK7 = target: T9, MKK7 (Homo sapiens, UniProt O14733); assay: KinomeScan; format: binding; conditions: read-out: % Control
T9 construct: purchased DiscoveRx

SRMS = target: T10, SRMS (Homo sapiens, UniProt Q9H3Y6); assay: KinomeScan; format: binding; conditions: read-out: % Control
T10 construct: purchased DiscoveRx (Fremont, CA)

TGFBR1 = target: T11, TGFBR1 (Homo sapiens, UniProt P36897); assay: KinomeScan; format: binding; conditions: read-out: % Control
T11 construct: purchased DiscoveRx (Fremont, CA)

BDKR2 = target: T12, BDKR2 (Homo sapiens, UniProt P30411); assay: GPCR Profiler; format: cell-based
T12 construct: host or cells: Chem-1 cells with promiscuous Gα15

CXCR4 = target: T13, CXCR4 (Homo sapiens, UniProt P61073); assay: GPCR Profiler; format: cell-based
T13 construct: host or cells: Chem-1 cells with Gα15

D1 = target: T14, D1 (Homo sapiens, UniProt P21728); assay: GPCR Profiler; format: cell-based
T14 construct: host or cells: Chem-1 cells with Gα15

NOP = target: T15, NOP (Homo sapiens, UniProt P41146); assay: GPCR Profiler; format: cell-based
T15 construct: host or cells: Chem-1 cells expressing Gα15

OPRK1 = target: T16, OPRK1 (Homo sapiens, UniProt P41145); assay: GPCR Profiler; format: cell-based
T16 construct: host or cells: Chem-1 cells expressing Gα15

GPR4 = target: T17, GPR4 (Homo sapiens, UniProt P46093); assay: SRE-luciferase assay, GPR4-transfected HEK293 cells; format: cell-based; conditions: OGM2 at 1, 10, or 100 μM
T17 construct: expressed in transfected cells
Experimental: 12-well plates of cells were transfected with 1 μg DNA using Lipofectamine 3000 with sre:luciferase and either the vector backbone, GFP, GPR68, GPR68-GFP, GPR4, or 336X-GFP. After 3 days, these cells were then lysed, and cell extracts were subjected to Steady-Glo luciferase assay (Promega™) according to the manufacturer's instructions. The results were normalized to cell titer, as determined using Cell Titer-Glo luminescence assay (Promega™). For some procedure, the cells were treated in serum-free medium, and were lysed on the third day.
Because GPR4, the paralog with highest homology with GPR68, was not covered in the initial GPCR profiling, whether OGM2 could inhibit GPR4 was tested by examining the effects of OGM2 on acid-induced serum responsive element (SRE) luciferase activity in HEK293 cells transfected with either GPR4 or GPR68. Mild acidification increased luciferase activity in GPR4 and GPR68 transfected cells above that of vector control.
Cas9^GPR68=GPR68 targeted sgRNA and Cas9; CTL=control; MoGPR68=GPR68 morpholino treatment. […] These cells were exposed to acidic media and assayed for luciferase activity as a readout of the receptor activity.

[2] = test system: patient derived GBM lines; assay: qPCR of ferroptosis markers; format: cell-based, human; conditions: 3 days
Description: cDNAs were generated using High-Capacity cDNA Reverse Transcription Kit with RNase Inhibitor (ThermoFisher, […]). Samples were run on a Quant Studio 5 real-time PCR system (Applied Biosystems™) with TaqMan™ Universal Master Mix II, with UNG (ThermoFisher, 4440042). Primers used were GAPDH: Hs02786624g1, GPR68: Hs00268858s1, ATF4: Hs00909569_g1, CHAC1: Hs00225520_m1, SLC7A11: Hs00921938_m1, HMOX1: Hs01110250_m1, TFRC: Hs00951083_m1.
Separate biological replicates of pdx and neurosphere cells treated with OGM for 3 days were generated. RNA was isolated, cDNA generated and qPCR was conducted on select key markers of ferroptosis (ATF4. CHAC1, HMOX1, TFRC, and SLC7A11) that were seen as dysregulated in RNAseq.

T14 sequence (P21728 whole entry): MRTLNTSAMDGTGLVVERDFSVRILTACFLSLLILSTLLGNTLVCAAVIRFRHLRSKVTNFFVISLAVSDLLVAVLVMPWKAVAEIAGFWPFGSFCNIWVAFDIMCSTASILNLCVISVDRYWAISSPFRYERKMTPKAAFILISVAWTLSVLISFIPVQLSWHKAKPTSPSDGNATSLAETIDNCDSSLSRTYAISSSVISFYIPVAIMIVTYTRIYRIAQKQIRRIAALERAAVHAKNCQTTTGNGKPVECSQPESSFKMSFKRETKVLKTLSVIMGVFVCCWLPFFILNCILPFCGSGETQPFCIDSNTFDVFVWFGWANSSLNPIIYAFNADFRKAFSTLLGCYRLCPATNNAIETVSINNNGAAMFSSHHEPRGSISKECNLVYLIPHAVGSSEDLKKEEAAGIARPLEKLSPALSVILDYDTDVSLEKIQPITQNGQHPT
T12 sequence (P30411 whole entry): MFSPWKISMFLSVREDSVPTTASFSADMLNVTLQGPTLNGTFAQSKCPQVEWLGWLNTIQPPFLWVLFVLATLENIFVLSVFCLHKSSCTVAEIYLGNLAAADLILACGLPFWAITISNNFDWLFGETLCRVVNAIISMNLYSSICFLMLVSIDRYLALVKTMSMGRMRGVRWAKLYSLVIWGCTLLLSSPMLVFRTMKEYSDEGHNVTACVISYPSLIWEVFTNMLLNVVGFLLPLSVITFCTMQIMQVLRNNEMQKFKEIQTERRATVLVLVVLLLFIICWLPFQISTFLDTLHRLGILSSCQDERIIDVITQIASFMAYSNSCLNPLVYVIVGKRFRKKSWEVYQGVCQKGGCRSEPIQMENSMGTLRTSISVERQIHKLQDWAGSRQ
T16 sequence (P41145 whole entry, species assumed): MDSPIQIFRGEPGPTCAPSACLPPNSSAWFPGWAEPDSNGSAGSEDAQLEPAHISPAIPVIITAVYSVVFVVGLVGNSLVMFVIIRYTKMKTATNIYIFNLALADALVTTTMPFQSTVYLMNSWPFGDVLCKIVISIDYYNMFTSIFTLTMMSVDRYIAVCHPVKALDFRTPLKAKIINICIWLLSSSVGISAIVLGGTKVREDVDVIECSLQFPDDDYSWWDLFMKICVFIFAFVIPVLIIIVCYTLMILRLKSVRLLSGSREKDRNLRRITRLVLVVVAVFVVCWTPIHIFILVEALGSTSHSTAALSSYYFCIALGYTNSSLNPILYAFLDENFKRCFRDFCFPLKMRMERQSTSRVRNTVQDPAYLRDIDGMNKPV
T15 sequence (P41146 whole entry): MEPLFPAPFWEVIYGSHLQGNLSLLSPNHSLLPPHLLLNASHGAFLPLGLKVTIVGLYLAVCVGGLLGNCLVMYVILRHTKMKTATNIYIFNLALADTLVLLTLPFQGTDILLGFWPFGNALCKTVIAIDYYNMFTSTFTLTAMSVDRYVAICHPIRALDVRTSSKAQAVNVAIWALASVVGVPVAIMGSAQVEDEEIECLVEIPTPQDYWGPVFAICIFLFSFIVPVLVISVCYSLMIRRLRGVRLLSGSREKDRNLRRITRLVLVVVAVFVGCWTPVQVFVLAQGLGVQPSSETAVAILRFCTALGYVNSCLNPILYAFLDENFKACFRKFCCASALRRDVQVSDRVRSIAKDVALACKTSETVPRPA
T13 sequence (P61073 whole entry, species assumed): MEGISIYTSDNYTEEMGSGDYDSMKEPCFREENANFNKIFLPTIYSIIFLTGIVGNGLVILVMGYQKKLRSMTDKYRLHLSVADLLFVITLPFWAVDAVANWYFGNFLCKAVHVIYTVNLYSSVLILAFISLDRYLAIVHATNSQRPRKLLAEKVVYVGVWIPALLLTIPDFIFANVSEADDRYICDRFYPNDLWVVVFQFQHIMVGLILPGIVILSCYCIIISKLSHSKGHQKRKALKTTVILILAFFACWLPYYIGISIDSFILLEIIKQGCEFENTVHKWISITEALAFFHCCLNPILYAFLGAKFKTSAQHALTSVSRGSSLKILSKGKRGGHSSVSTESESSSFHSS
T7 sequence (P23458 875-1153 limits assumed): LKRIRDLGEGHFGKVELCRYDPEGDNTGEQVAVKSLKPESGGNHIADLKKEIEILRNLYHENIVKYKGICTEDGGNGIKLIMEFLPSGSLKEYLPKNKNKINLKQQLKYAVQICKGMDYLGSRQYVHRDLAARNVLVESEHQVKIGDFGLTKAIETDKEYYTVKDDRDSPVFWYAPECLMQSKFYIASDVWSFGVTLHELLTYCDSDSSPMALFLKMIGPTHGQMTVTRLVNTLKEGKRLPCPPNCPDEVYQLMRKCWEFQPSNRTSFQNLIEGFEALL
T4 sequence (P09769 whole entry): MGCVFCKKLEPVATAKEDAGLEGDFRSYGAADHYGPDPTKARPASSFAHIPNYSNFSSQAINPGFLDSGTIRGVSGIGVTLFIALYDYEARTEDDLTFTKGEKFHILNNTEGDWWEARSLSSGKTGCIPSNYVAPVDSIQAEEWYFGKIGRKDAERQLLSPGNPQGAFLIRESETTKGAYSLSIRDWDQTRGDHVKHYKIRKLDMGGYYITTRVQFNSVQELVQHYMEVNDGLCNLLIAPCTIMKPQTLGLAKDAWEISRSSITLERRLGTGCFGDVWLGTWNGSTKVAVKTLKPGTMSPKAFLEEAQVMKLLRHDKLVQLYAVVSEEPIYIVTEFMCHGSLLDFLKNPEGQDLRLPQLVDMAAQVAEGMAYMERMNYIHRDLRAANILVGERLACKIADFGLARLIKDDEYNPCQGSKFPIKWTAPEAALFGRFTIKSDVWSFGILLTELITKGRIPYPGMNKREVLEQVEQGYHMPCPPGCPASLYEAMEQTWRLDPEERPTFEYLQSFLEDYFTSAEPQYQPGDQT
Sequence of Lpa1 (Q92633 whole entry, species assumed): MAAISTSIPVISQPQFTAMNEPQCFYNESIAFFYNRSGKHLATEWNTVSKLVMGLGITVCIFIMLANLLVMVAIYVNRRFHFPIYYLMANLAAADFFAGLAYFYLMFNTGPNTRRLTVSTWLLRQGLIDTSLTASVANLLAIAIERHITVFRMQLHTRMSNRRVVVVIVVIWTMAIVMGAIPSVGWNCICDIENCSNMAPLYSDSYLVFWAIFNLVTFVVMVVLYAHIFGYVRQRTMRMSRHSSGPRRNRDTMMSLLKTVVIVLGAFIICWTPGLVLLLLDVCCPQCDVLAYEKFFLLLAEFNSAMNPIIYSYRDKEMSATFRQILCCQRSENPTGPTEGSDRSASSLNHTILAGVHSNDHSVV
Sequence of CTK (P42679 whole entry): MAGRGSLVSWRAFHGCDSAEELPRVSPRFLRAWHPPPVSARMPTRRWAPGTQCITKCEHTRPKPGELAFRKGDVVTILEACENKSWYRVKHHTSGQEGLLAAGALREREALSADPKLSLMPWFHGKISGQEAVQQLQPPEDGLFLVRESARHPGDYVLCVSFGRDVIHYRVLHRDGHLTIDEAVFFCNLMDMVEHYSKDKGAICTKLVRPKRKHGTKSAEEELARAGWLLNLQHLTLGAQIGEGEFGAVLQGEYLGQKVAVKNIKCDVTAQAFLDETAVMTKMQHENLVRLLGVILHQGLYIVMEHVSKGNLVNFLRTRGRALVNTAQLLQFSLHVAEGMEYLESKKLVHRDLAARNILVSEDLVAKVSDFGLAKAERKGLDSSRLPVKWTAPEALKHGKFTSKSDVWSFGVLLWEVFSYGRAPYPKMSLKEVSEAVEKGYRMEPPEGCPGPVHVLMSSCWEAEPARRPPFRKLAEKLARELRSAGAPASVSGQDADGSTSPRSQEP
T10 sequence (Q9H3Y6 whole entry): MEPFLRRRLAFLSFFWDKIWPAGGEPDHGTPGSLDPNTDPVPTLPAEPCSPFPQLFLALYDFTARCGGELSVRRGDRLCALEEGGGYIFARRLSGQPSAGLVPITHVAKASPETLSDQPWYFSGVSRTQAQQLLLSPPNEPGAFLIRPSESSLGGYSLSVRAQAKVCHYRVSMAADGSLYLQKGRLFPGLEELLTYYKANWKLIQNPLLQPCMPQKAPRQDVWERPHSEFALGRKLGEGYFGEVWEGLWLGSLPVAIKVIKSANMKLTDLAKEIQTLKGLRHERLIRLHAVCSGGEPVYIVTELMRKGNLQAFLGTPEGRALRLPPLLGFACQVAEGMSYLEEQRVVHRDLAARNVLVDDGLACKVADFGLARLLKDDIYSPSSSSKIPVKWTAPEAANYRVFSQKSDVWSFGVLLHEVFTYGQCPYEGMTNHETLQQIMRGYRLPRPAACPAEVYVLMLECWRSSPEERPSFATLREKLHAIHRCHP
Sequence of CSNK1A1L (Q8N752 whole entry): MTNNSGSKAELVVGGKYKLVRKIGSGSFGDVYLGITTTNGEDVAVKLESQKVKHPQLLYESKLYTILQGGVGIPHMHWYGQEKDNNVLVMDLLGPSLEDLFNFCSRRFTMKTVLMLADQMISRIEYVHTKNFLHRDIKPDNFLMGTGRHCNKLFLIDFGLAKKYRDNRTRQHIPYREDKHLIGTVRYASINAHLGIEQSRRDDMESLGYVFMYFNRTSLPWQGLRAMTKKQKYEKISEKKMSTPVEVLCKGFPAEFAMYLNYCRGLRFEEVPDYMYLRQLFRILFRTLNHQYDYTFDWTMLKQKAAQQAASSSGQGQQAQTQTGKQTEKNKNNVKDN
T11 sequence (P36897 34-503): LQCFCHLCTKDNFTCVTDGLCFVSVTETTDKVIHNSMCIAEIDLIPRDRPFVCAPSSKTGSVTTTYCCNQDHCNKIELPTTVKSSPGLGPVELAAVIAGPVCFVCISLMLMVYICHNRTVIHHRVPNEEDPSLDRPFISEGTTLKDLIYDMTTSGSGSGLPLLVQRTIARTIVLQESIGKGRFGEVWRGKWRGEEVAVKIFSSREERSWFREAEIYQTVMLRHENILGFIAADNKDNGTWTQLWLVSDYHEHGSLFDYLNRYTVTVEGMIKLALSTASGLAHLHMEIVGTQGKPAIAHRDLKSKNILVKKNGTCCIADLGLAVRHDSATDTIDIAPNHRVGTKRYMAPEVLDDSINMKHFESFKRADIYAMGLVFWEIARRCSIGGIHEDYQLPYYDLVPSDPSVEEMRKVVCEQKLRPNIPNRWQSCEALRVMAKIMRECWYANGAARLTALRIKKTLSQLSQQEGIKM

Question: What does the source list for `CCc1ccc2c(c1)C1(NN=C(c3cccc4ccccc34)S1)C(=O)N2` (stereo not shown) [OGM1, 5-ethyl-5′-naphthalen-1-ylspiro[1H-indole-3,2′-3H-1,3,4-thiadiazole]-2-one]?
Answer: IC50 (Lpa1): 8.7 µM; remaining binding at 10 µM (ABL2): 100%; remaining binding at 10 µM (ACVR1): 100%; remaining binding at 10 µM (CDKL2): 100%; remaining binding at 10 µM (CDKL3): 100%; remaining binding at 10 µM (CSNK1A1L): 100%; remaining binding at 10 µM (CTK): 100%; remaining binding at 10 µM (EPHB3): 100%; remaining binding at 10 µM (FGR): 100%; remaining binding at 10 µM (HCK): 96%; remaining binding at 10 µM (IGF1R): 84%; remaining binding at 10 µM [1]: 59%; remaining binding at 10 µM (LIMK1): 100%; remaining binding at 10 µM (MKK7): 99%; remaining binding at 10 µM (SRMS): 80%; remaining binding at 10 µM (TGFBR1): 100%; Antagonism (BDKR2; 10 uM): 3.4; Agonism (BDKR2; 12.5 uM): −2.4; Antagonism (CXCR4; 10 uM): −6.9; Agonism (CXCR4; 12.5 uM): 1.5; Antagonism (D1; 10 uM): 5; Agonism (D1; 12.5 uM): 0; Antagonism (NOP; 10 uM): −1.9; Agonism (NOP; 12.5 uM): 0.2; Antagonism (OPRK1; 10 uM): −8.1; Agonism (OPRK1; 12.5 uM): 4.3

Question: Which results are given for `CCc1ccc2c(c1)C1(NN=C(c3ccccc3)S1)C(=O)N2` (stereo not shown) [OGM2]?
Answer: acid-induced SRE-luciferase activity (GPR4): not inhibited; expression of ATF4, CHAC1, HMOX1, TFRC, SLC7A11 [2]: induced key markers of ferroptosis
